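The compound was tested at five concentrations on cells cultured in 96-well plates, with a 48-hour exposure period. The concentration for 50% growth inhibition is given as GI50.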 Activity calls are given as the source filed them. Cut-off read from the data, not from the text of the source: active = GI50 up to about 1.1 µM and inactive = higher. Bounds are passed on as bounds.

Test systems include SF-295; U-251; RXF 393; HL-60; HOP-62; SK-MEL-2; NCI-H23; TK-10; T47D; OVCAR-5; LOX IMVI; SF-539; OVCAR-4; OVCAR-8; Malme-3M; SNB-75; A549; MOLT-4; HCT-15; UACC-257.
What all share (assay): NCI anticancer screen, dose series, 48 h

`CCOc1ccc(/N=N/C2C(=O)N(C(=O)CC(=O)Nc3ccc(Cl)cc3)N=C2C)cc1` (stereo not drawn): the GI50 with SF-295, in the assay on U-251, with RXF 393, with HL-60, with HOP-62 and in the assay with SK-MEL-2 was > 100 µM (inactive) in each case. The GI50 with NCI-H23, with TK-10, in the assay on T47D, in the assay with OVCAR-5, with LOX IMVI and in the assay with SF-539 was > 100 µM (inactive) in each case. Further, the GI50 with OVCAR-4 was > 100 µM (inactive); in the assay on OVCAR-8, 64.1 µM (inactive); in the assay on Malme-3M, > 100 µM (inactive); with SNB-75, 18.4 µM (inactive); in the assay on A549 it was > 100 µM (inactive).
As for `CC(=O)OC/C=C(/C=C/CNC1CCCCC1)OC(C)=O`, the GI50 is 18.1 µM (inactive) in the assay with SF-295; 17.8 µM (inactive) in the assay on U-251; 17.9 µM (inactive) in the assay on RXF 393; > 10 µM (inactive) in the assay with HL-60; 36.2 µM (inactive) in the assay with MOLT-4; 16.5 µM (inactive) in the assay with HOP-62. Also, the GI50 with SK-MEL-2 was 19.8 µM (inactive); in the assay with NCI-H23, 16.3 µM (inactive); in the assay on HCT-15 it was 19.2 µM; in the assay on TK-10, 16.6 µM (inactive); in the assay with T47D, 7.26 µM (inactive); in the assay on OVCAR-5 it was 16.3 µM (inactive). Further, the GI50 in the assay on LOX IMVI was 19.1 µM (inactive); with UACC-257 it was 15.1 µM (inactive); with SF-539, 11.6 µM (inactive); in the assay with OVCAR-4, 20.8 µM (inactive); with OVCAR-8, > 10 µM (inactive); with Malme-3M it was 14.9 µM (inactive). Moreover, the GI50 is 31.3 µM (inactive) in the assay on SNB-75 and 47.8 µM (inactive) in the assay on A549.
As for `CCC(C(=O)c1cccs1)C(O)(C(F)(F)F)C(F)(F)F` (stereo not drawn), the GI50 with SF-295 was > 100 µM (inactive); with U-251, > 100 µM (inactive); in the assay on RXF 393 it was > 100 µM (inactive); in the assay with HL-60 it was 3.39 µM (inactive); in the assay with MOLT-4, > 100 µM (inactive); in the assay with HOP-62 it was > 100 µM (inactive). The GI50 in the assay with SK-MEL-2 is > 100 µM (inactive); with NCI-H23 it was > 100 µM (inactive); in the assay with HCT-15, over 100 µM; in the assay on TK-10, > 100 µM (inactive); in the assay on T47D, > 100 µM (inactive); in the assay with OVCAR-5, > 100 µM (inactive). Also, the GI50 with LOX IMVI, with UACC-257, in the assay on SF-539, in the assay with OVCAR-4, in the assay on OVCAR-8 and with Malme-3M was > 100 µM (inactive) throughout. Moreover, the GI50 in the assay on SNB-75 and in the assay with A549 was > 100 µM (inactive) throughout.
On to `CC(=O)OCC(=O)[C@@]12OC(C)(C)O[C@@H]1C[C@H]1[C@@H]3CC=C4C[C@@H](O)CC[C@]4(C)[C@H]3CC[C@@]12C`, for which the GI50 was 33.1 µM (inactive) with SF-295; 58.6 µM (inactive) with U-251; 19.9 µM (inactive) in the assay with RXF 393; > 100 µM (inactive) in the assay on HL-60; > 100 µM (inactive) in the assay on MOLT-4; 32.2 µM (inactive) with HOP-62. Besides, the GI50 with SK-MEL-2 was > 100 µM (inactive); in the assay on NCI-H23 it was 57.7 µM (inactive); with HCT-15, over 100 µM; in the assay on TK-10 it was 40.3 µM (inactive); in the assay with T47D, 35.5 µM (inactive); in the assay with OVCAR-5, > 100 µM (inactive). Further, the GI50 in the assay on LOX IMVI was > 100 µM (inactive); in the assay on UACC-257 it was > 100 µM (inactive); in the assay with SF-539, 30.8 µM (inactive); with OVCAR-4, > 100 µM (inactive); in the assay on OVCAR-8, 36.7 µM (inactive); in the assay with Malme-3M it was > 100 µM (inactive). Moreover, the results for the GI50 with SNB-75 and with A549 were 13.9 µM (inactive) and > 100 µM (inactive), respectively.
Regarding `CC1=C(N2CC2)C(=O)C(C)=C(N2CC2)C1=O`, the GI50 was 0.127 µM (active) in the assay with SF-295; 0.152 µM (active) with U-251; 0.151 µM (active) in the assay with RXF 393; 0.0206 µM (active) in the assay with HL-60; 0.0753 µM (active) with MOLT-4; 0.102 µM (active) in the assay on HOP-62. Also, the GI50 is 0.306 µM (active) in the assay on SK-MEL-2; 0.0412 µM (active) in the assay with NCI-H23; 0.196 µM with HCT-15; 0.289 µM (active) in the assay on TK-10; 0.208 µM (active) in the assay on T47D; 0.296 µM (active) in the assay with OVCAR-5. In addition, the GI50 with LOX IMVI was 0.112 µM (active); in the assay on UACC-257 it was 0.465 µM (active); in the assay with SF-539 it was 0.134 µM (active); in the assay on OVCAR-4, 0.283 µM (active); with OVCAR-8 it was 0.188 µM (active); in the assay on Malme-3M it was 0.204 µM (active). For the same molecule, the GI50 in the assay on SNB-75 is 0.309 µM (active); in the assay with A549 it was 0.112 µM (active).
Turning to `Cc1cn(CC2(CO)CCC2)c(=O)[nH]c1=O`, the GI50 with SF-295, in the assay with U-251, in the assay with RXF 393, in the assay on HL-60, with MOLT-4 and with HOP-62 was > 100 µM (inactive) throughout. For the same molecule, the GI50 in the assay on SK-MEL-2 was > 100 µM (inactive); in the assay with NCI-H23, > 100 µM (inactive); in the assay on HCT-15 it was over 100 µM; with TK-10, > 100 µM (inactive); in the assay with T47D, > 100 µM (inactive); in the assay on OVCAR-5, > 100 µM (inactive). Further, the GI50 in the assay with LOX IMVI, in the assay on UACC-257, in the assay on SF-539, in the assay on OVCAR-4, with OVCAR-8 and in the assay with Malme-3M was > 100 µM (inactive) each time. Moreover, the GI50 with SNB-75 and in the assay with A549 was > 100 µM (inactive) in each case.
In the case of `C=C1C(=O)OC2CC(C)C3(O)CCC(=O)C3(C)CC12` (stereo not drawn), the GI50 in the assay on SF-295 is 40.5 µM (inactive); with U-251 it was 38.1 µM (inactive); with RXF 393, 21.8 µM (inactive); in the assay with HL-60, 18 µM (inactive); in the assay with MOLT-4 it was 22.2 µM (inactive); with HOP-62 it was 28.2 µM (inactive). In addition, the GI50 is 22.2 µM (inactive) with SK-MEL-2; 31.7 µM (inactive) with NCI-H23; 14.9 µM in the assay with HCT-15; 26.7 µM (inactive) in the assay on TK-10; 40.4 µM (inactive) in the assay on T47D; 23.6 µM (inactive) in the assay with OVCAR-5. Further, the GI50 is 31.8 µM (inactive) in the assay with LOX IMVI; 43.7 µM (inactive) with UACC-257; 16.1 µM (inactive) in the assay on SF-539; 18.7 µM (inactive) with OVCAR-4; 24.6 µM (inactive) with OVCAR-8; 19.5 µM (inactive) with Malme-3M. Besides, the GI50 in the assay on SNB-75 was 20.2 µM (inactive); in the assay on A549, 52.4 µM (inactive).
Take `CCN1c2cc(Br)cc3[nH]c(=O)n(c23)CCC1C` (stereo not drawn): the GI50 in the assay on SF-295 is 16 µM (inactive); in the assay on U-251, 14.8 µM (inactive); with RXF 393, 11.6 µM (inactive); in the assay on HL-60, 11.9 µM (inactive); in the assay with MOLT-4, 4.32 µM (inactive); in the assay on HOP-62, 18 µM (inactive). Further, the GI50 is 15.6 µM (inactive) in the assay with SK-MEL-2; 21.7 µM (inactive) in the assay on NCI-H23; 14.5 µM with HCT-15; 15.9 µM (inactive) in the assay with TK-10; 17.4 µM (inactive) in the assay on T47D; 20.2 µM (inactive) in the assay with OVCAR-5. Also, the GI50 in the assay on LOX IMVI is 11.5 µM (inactive); with UACC-257 it was 17.4 µM (inactive); in the assay with SF-539, 34.2 µM (inactive); with OVCAR-4, 20 µM (inactive); with OVCAR-8, 14.4 µM (inactive); in the assay with Malme-3M it was 21.5 µM (inactive). Also, the values for the GI50 with SNB-75 and in the assay on A549 were 12.3 µM (inactive) and 15.1 µM (inactive), respectively.
Turning to `CC[C@]12C=CCN3CC[C@@]4(c5cc(Br)c(OC)cc5N(C)[C@H]4[C@@](O)(C(=O)NC(Cc4c[nH]c5ccccc45)C(=O)OC)[C@@H]1O)[C@@H]32` (stereo partly drawn), the GI50 in the assay with SF-295 is 9.46 µM (inactive); with U-251, 5.04 µM (inactive); in the assay on RXF 393, 19.1 µM (inactive); in the assay on HL-60, 13.5 µM (inactive); in the assay on MOLT-4, 2.87 µM (inactive); with HOP-62 it was 12.6 µM (inactive). Also, the GI50 with SK-MEL-2 was 25.2 µM (inactive); with NCI-H23 it was 45.1 µM (inactive); with HCT-15 it was 5.74 µM; in the assay on T47D it was 5.2 µM (inactive); with OVCAR-5 it was 71.4 µM (inactive); in the assay with LOX IMVI, 4.6 µM (inactive). The GI50 in the assay with SF-539 is 16.4 µM (inactive); with OVCAR-4, 20.5 µM (inactive); with OVCAR-8, 6.59 µM (inactive); in the assay with Malme-3M, 11.6 µM (inactive); in the assay on SNB-75 it was > 100 µM (inactive); in the assay with A549 it was 11.8 µM (inactive).
For `COC(=O)N1N=C(c2ccccc2)C1c1ccccc1` (stereo not drawn), the GI50 with U-251 was 42.7 µM (inactive); in the assay with RXF 393, 31.7 µM (inactive); in the assay on HL-60, 27.2 µM (inactive); in the assay on MOLT-4, 28.1 µM (inactive); with SK-MEL-2, 34.5 µM (inactive); in the assay on NCI-H23, 24.8 µM (inactive). In addition, the GI50 was 39.5 µM in the assay with HCT-15; 70.1 µM (inactive) with TK-10; 25.4 µM (inactive) with T47D; 78.5 µM (inactive) in the assay with OVCAR-5; 26.2 µM (inactive) in the assay on LOX IMVI; 24.5 µM (inactive) in the assay on UACC-257. Further, the GI50 was 22.9 µM (inactive) in the assay on SF-539; 25.8 µM (inactive) in the assay with OVCAR-4; 27.5 µM (inactive) in the assay with OVCAR-8; 40.7 µM (inactive) with Malme-3M; 36 µM (inactive) with SNB-75; 31 µM (inactive) with A549.

(Values after ChEMBL document CHEMBL1201862, “PubChem BioAssay data set” (2004).)
